Among the data in patent US11865176B2, “Compositions and methods of modulating anti-tumor immunity” (Dana-Farber Cancer Institute, Inc., priority 2016, dated 2024) are Zscore_1, Zscore_2 and Zscore_AVG values, retold here.

The test system of the assay is PD-1-overexpressing Jurkat cells. The assay can be described thus: Small molecule screen: IL2 secretion (AlphaLISA) from stimulated PD-1-overexpressing Jurkat cells. In kind it is cell-based, human. As to conditions: 3.3 μM compound; for Zscore_1 / Zscore_2: IL2 level, α-CD3/α-CD28/α-PD-1 beads; for Zscore_1: replicate 1; for Zscore_2: replicate 2; for Zscore_AVG: average of replicate Z scores. The method, then:
PD-1-overexpressing Jurkat cells were plated at a concentration of 100,000 cells/well in a total volume of 80 μl. […] Dynabeads conjugated to α-CD3, α-CD28, and α-PD-1 antibodies were added in 20 for a final assay volume of 100 with a final compound concentration of 3.3 μM and an 8:1 bead:cell ratio. Beads were conjugated to α-CD3/α-CD28/control IgG and added to wells containing DMSO-treated cells as a positive control, while beads conjugated to α-CD3/α-CD28/α-PD1 were added to wells containing DMSO-treated cells as a negative control. Supernatants from each well were analyzed for IL2 levels by AlphaLISA (Perkin Elmers) according to the manufacturer's protocol. Average and standard deviation values were calculated from the PD-1 controls (DMSO-treated cells stimulated with α-CD3/α-CD28/α-PD-1 beads); hits were defined as compounds scoring at least 3 standard deviations from the mean of the controls.
In addition to known negative regulators of IL-2 production (e.g. glycogen synthase kinase-3α/β (GSK3α/β) (24,25)), this screen identified cyclin-dependent kinases 4 and 6 inhibitors (CDK4/6i) as top hits (Table 1).

With `Cc1cc(Nc2nc(-c3ccccc3)nc3ccccc23)n[nH]1` [GSK-3 Inhibitor XIII], the Zscore_1 is −2.535, the Zscore_2 is on record as −3.925 and the Zscore_AVG was −3.23.

With `CC(=O)O/N=C1/C(=C2/C(=O)Nc3cc(Br)ccc32)Nc2ccccc21` [GSK-3 Inhibitor X], the Zscore_1 came to 28.58, the Zscore_2 was determined as 35.89 and the Zscore_AVG was 32.23.

Compound `Ic1cccc(CSc2nnc(-c3ccncc3)o2)c1` [GSK-3b Inhibitor II] registered a Zscore_1 of −2.376, a Zscore_2 of −0.4154 and a Zscore_AVG of −1.396.

`Cn1sc(=O)n(Cc2ccccc2)c1=O` [GSK-3b Inhibitor I]: the Zscore_1 was −1.327, the Zscore_2 is on record as −2.222 and the Zscore_AVG is given as −1.774.

Compound `COc1ccc(CNC(=O)Nc2ncc([N+](=O)[O-])s2)cc1` [GSK-3b Inhibitor VIII] came in with a Zscore_1 of 1.017, a Zscore_2 of 0.5916 and a Zscore_AVG of 0.8042.

The compound `Nc1cccc(-c2cc3c(Oc4cccc(O)c4)ncnc3[nH]2)c1` [GSK-3b Inhibitor XII, TWS119] showed a Zscore_1 of −1.059, a Zscore_2 of −1.321 and a Zscore_AVG of −1.19.

Regarding `O=C1NC(=O)C(c2cn(CCCO)c3ncccc23)=C1c1cnccn1` [GSK-3b Inhibitor XI], the Zscore_1 is 5.72, the Zscore_2 was found to be 4.871 and the Zscore_AVG is on record as 5.296.

Compound `CNCCNS(=O)(=O)c1cccc2cnccc12.Cl.Cl` [H-8, Dihydrochloride] had a Zscore_1 of −1.014, a Zscore_2 of −2.509 and a Zscore_AVG of −1.761.

For `Cl.Cl.O=S(=O)(NCCNC/C=C/c1ccc(Br)cc1)c1cccc2cnccc12` [H-89, Dihydrochloride], the Zscore_1 was −3.268, the Zscore_2 is −0.4334 and the Zscore_AVG is recorded as −1.851.

`Cl.Cl.N=C(N)NCCNS(=O)(=O)c1cccc2cnccc12` [HA 1004, Dihydrochloride] displayed a Zscore_1 of 0.08457, a Zscore_2 of −0.6711 and a Zscore_AVG of −0.2933.

Consider `Cl.Cl.O=S(=O)(c1cccc2cnccc12)N1CCCNCC1` [HA 1077, Dihydrochloride Fasudil], for which the Zscore_1 is on record as −1.883, the Zscore_2 is recorded as −3.234 and the Zscore_AVG is on record as −2.559.

`CO[C@H]1[C@@H](OC)C[C@H](C)[C@@H](OC)C2=CC(=O)C=C(NC(=O)/C(C)=C/C=C\[C@H](OC)[C@@H](OC(N)=O)/C(C)=C/[C@@H]1C)C2=O` [Herbimycin A, Streptomyces sp.] showed a Zscore_1 of 5.643, a Zscore_2 of 3.663 and a Zscore_AVG of 4.653.

With `COc1cc(OC)c(C=C2C(O)=Nc3ccccc32)c(OC)c1` [IC261], the Zscore_1 is listed as −0.7866, the Zscore_2 is reported as −1.136 and the Zscore_AVG was −0.9616.

`COc1ccc(Cl)cc1NC(=O)Nc1cc(C)nc2ccccc12` [IGF-1R Inhibitor II] came in with a Zscore_1 of 0.516, a Zscore_2 of −0.987 and a Zscore_AVG of −0.2355.

Consider `O=C(Nc1cc(Cl)cc2c1[nH]c1cnccc12)c1cccnc1` [IKK Inhibitor X], for which the Zscore_1 is given as −4.959, the Zscore_2 is on record as −5.349 and the Zscore_AVG is −5.154.

As for `NC(=O)Nc1sc(-c2ccc(F)cc2)cc1C(N)=O` [IKK-2 Inhibitor IV], the Zscore_1 is −1.558, the Zscore_2 was −4.19 and the Zscore_AVG is given as −2.874.

`N#Cc1c(C2CCNCC2)cc(-c2c(O)cccc2OCC2CC2)nc1N` [IKK-2 Inhibitor VIII] registered a Zscore_1 of −0.6795, a Zscore_2 of −0.365 and a Zscore_AVG of −0.5222.

`NC(=O)Nc1sc(-c2ccccc2)cc1C(N)=O` [IKK-2 Inhibitor VI] gave a Zscore_1 of −5.576, a Zscore_2 of −7.212 and a Zscore_AVG of −6.394.

Compound `O=C(Nc1cc(C(F)(F)F)cc(C(F)(F)F)c1)c1cc(Cl)ccc1O` [IKK-2 Inhibitor V] had a Zscore_1 of −5.485, a Zscore_2 of −7.792 and a Zscore_AVG of −6.638.

On to `COc1cc2ncn(-c3cc(OCc4ccccc4S(C)(=O)=O)c(C#N)s3)c2cc1OC` [IKK-3 Inhibitor IX], for which the Zscore_1 came to 3.754, the Zscore_2 came to 2.454 and the Zscore_AVG turned out to be 3.104.

In turn, `O=[N+]([O-])c1ccc(CNc2nc(NCc3cccc(C(F)(F)F)c3)nc3nc[nH]c23)cc1` [IP3K Inhibitor] had a Zscore_1 of 1.006, a Zscore_2 of −0.0969 and a Zscore_AVG of 0.4547.

For the compound `O=C(Nc1nc2ccccc2n1CCN1CCOCC1)c1cccc([N+](=O)[O-])c1` [IRAK-1/4 Inhibitor], the Zscore_1 is −0.5038, the Zscore_2 is reported as −1.963 and the Zscore_AVG is recorded as −1.233.

The compound `O=C1Nc2ccccc2/C1=C1/Nc2ccccc2/C1=N\OCC(O)CO` (stereo not drawn) [Indirubin Derivative E804] registered a Zscore_1 of 20.78, a Zscore_2 of 24.43 and a Zscore_AVG of 22.6.

Regarding `O=C1Nc2ccc(I)cc2/C1=C1/Nc2ccccc2/C1=N\O` [Indirubin-3′-monoxime, 5-Iodo-], the Zscore_1 stood at 10.18, the Zscore_2 came to 17.16 and the Zscore_AVG is given as 13.67.

In turn, `COc1cc2ncnc(Nc3ccc(O)c(Br)c3)c2cc1OC` [JAK3 Inhibitor II] showed a Zscore_1 of −0.7783, a Zscore_2 of −1.36 and a Zscore_AVG of −1.069.

`CC(C)N(CCC(=O)c1ccc2ccccc2c1)Cc1ccccc1` [JAK3 Inhibitor IV]: the Zscore_1 is 0.2022, the Zscore_2 was determined as 0.908 and the Zscore_AVG was 0.5551.

`CC(C)(C)c1nc2c3cc[nH]c(=O)c3c3cc(F)ccc3c2[nH]1` [JAK Inhibitor I] had a Zscore_1 of −4.034, a Zscore_2 of −6.012 and a Zscore_AVG of −5.023.

`O=C1c2ccccc2-c2n[nH]c3cccc1c23` [JNK Inhibitor II]: the Zscore_1 is 0.4426, the Zscore_2 was 0.5814 and the Zscore_AVG is reported as 0.512.

Turning to `N#Cc1c(NC(=O)c2cccc3ccccc23)sc2c1CCCC2` [JNK Inhibitor IX], the Zscore_1 is recorded as 0.5842, the Zscore_2 is listed as −0.05285 and the Zscore_AVG came to 0.2657.

In the case of `CCOc1nc(NC(=O)Cc2cc(OC)ccc2OC)cc(N)c1C#N` [JNK Inhibitor VIII], the Zscore_1 was −1.284, the Zscore_2 is given as −2.969 and the Zscore_AVG is recorded as −2.126.

For the compound `N#CC(c1ccnc(NCCc2cccnc2)n1)c1nc2ccccc2s1` (stereo not drawn) [JNK Inhibitor V], the Zscore_1 is −0.3788, the Zscore_2 was found to be 3.626 and the Zscore_AVG was 1.623.

For `Cn1nc2c3c(cccc31)C(=O)c1ccccc1-2` [JNK Inhibitor, Negative Control], the Zscore_1 was determined as 0.1027, the Zscore_2 is reported as 1.046 and the Zscore_AVG was 0.5746.

The compound `COC(=O)[C@@]1(O)C[C@H]2O[C@]1(C)n1c3ccccc3c3c4c(c5c6ccccc6n2c5c31)C(=O)NC4` [K-252a, Nocardiopsis sp.] yielded a Zscore_1 of −4.42, a Zscore_2 of −6.58 and a Zscore_AVG of −5.5.

Turning to `CN([C@@H](Cc1ccc(OS(=O)(=O)c2cccc3cnccc23)cc1)C(=O)N1CCN(c2ccccc2)CC1)S(=O)(=O)c1cccc2cnccc12` [KN-62], the Zscore_1 is on record as −0.2488, the Zscore_2 is −0.8434 and the Zscore_AVG is on record as −0.5461.

Regarding `COc1ccc(S(=O)(=O)Nc2ccccc2CN(C)C/C=C/c2ccc(Cl)cc2)cc1` [KN-92], the Zscore_1 is 0.5356, the Zscore_2 came out at 0.3912 and the Zscore_AVG is on record as 0.4634.

`COc1ccc(S(=O)(=O)N(CCO)c2ccccc2CN(C)C/C=C/c2ccc(Cl)cc2)cc1` [KN-93] registered a Zscore_1 of −0.2896, a Zscore_2 of −2.889 and a Zscore_AVG of −1.589.

As for `CCCCCCOC(=O)[C@]1(O)C[C@@H]2O[C@@]1(C)n1c3ccccc3c3c4c(c5c6ccccc6n2c5c31)C(=O)NC4` [KT5720], the Zscore_1 is given as 10.81, the Zscore_2 is recorded as 13.17 and the Zscore_AVG was 11.99.

Take `O=C1Cc2c([nH]c3ccc(Br)cc23)-c2ccccc2N1` [Kenpaullone]: the Zscore_1 is given as −0.7695, the Zscore_2 is given as −1.747 and the Zscore_AVG is given as −1.258.

The compound `Nc1ccc(-c2cccc3c(=O)cc(N4CCOCC4)oc23)cc1` [LY 294002,4-NH2] came in with a Zscore_1 of 3.33, a Zscore_2 of 7.54 and a Zscore_AVG of 5.435.

As to `O=c1cc(N2CCOCC2)oc2c(-c3ccccc3)cccc12` [LY 294002], the Zscore_1 was −1.451, the Zscore_2 was 0.6923 and the Zscore_AVG is −0.3791.
